# Measurements reported in PubChem BioAssay AID1919000 (Molecular Pharmacology Branch, DTP, NCI, 2023).
# System: 653999-131-R-J2-PDC complex spheroids, growth % test/control
# Test: Anticancer human tumor 653999-131-R-J2-PDC patient-derived lung adenocarcinoma cell line growth inhibition [AhR]
# Conditions: for IC50: curve of first compound; for viability, T/C: stronger effect = lower value
# Outline: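 Complex tumor spheroids co-cultured with HUVEC and human MSC stroma; AhR antagonists tested in combination with standard-of-care and investigational agents. Top concentration at or near clinical Cmax (else 10 microM), half-log dilutions; growth expressed as percent test/control.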
# [1] = second compound 0.1 µM, first compound 0.0316 µM
# [2] = second compound 0.1 µM, first compound 0.1 µM
# [3] = second compound 0.1 µM, first compound 0.316 µM
# [4] = second compound 0.1 µM, first compound 1 µM
# [5] = second compound 0.1 µM, first compound 3.16 µM
# [6] = second compound 0.1 µM, first compound 10 µM
# [7] = second compound 0.316 µM, first compound 0.0316 µM
# [8] = second compound 0.316 µM, first compound 0.1 µM
# [9] = second compound 0.316 µM, first compound 0.316 µM
# [10] = second compound 0.316 µM, first compound 1 µM
# [11] = second compound 0.316 µM, first compound 3.16 µM
# [12] = second compound 0.316 µM, first compound 10 µM
# [13] = second compound 1 µM, first compound 0.0316 µM
# [14] = second compound 1 µM, first compound 0.1 µM
# [15] = second compound 1 µM, first compound 0.316 µM
# [16] = second compound 1 µM, first compound 1 µM
# [17] = second compound 1 µM, first compound 3.16 µM
# [18] = second compound 1 µM, first compound 10 µM
# [19] = second compound 3.16 µM, first compound 0.0316 µM
# [20] = second compound 3.16 µM, first compound 0.1 µM
# [21] = second compound 3.16 µM, first compound 0.316 µM
# [22] = second compound 3.16 µM, first compound 1 µM
# [23] = second compound 3.16 µM, first compound 3.16 µM
# [24] = second compound 3.16 µM, first compound 10 µM
# [25] = second compound 10 µM, first compound 0.0316 µM
# [26] = second compound 10 µM, first compound 0.1 µM
# [27] = second compound 10 µM, first compound 0.316 µM
# [28] = second compound 10 µM, first compound 1 µM
# [29] = second compound 10 µM, first compound 3.16 µM
# [30] = second compound 10 µM, first compound 10 µM
# 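Note: spheroids exposed to agents for seven days.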
# 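Throughout, for viability, T/C: 100% = DMSO vehicle control viability.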
smiles,measurement,setting,value
CC1(C)CCC(CN2CCN(c3ccc(C(=O)NS(=O)(=O)c4ccc(NCC5CCOCC5)c([N+](=O)[O-])c4)c(Oc4cnc5[nH]ccc5c4)c3)CC2)=C(c2ccc(Cl)cc2)C1 + Cc1ccccc1N=Nc1ccc(NC(=O)c2ccnn2C)c(C)c1,IC50,second compound 0.1 µM,> 10000 nM
same,IC50,second compound 0.316 µM,> 10000 nM
same,IC50,second compound 1 µM,> 10000 nM
same,IC50,second compound 3.16 µM,> 10000 nM
same,IC50,second compound 10 µM,> 10000 nM
same,"viability, T/C",[1],100%
same,"viability, T/C",[2],99.1%
same,"viability, T/C",[3],103%
same,"viability, T/C",[4],95.1%
same,"viability, T/C",[5],97.7%
same,"viability, T/C",[6],68.7%
same,"viability, T/C",[7],88.8%
same,"viability, T/C",[8],90.6%
same,"viability, T/C",[9],97.7%
same,"viability, T/C",[10],86%
same,"viability, T/C",[11],92.1%
same,"viability, T/C",[12],64.7%
same,"viability, T/C",[13],99%
same,"viability, T/C",[14],93.1%
same,"viability, T/C",[15],89%
same,"viability, T/C",[16],99.4%
same,"viability, T/C",[17],91.7%
same,"viability, T/C",[18],73.8%
same,"viability, T/C",[19],99.5%
same,"viability, T/C",[20],90.2%
same,"viability, T/C",[21],94.3%
same,"viability, T/C",[22],90%
same,"viability, T/C",[23],85.6%
same,"viability, T/C",[24],80.8%
same,"viability, T/C",[25],84%
same,"viability, T/C",[26],94.7%
same,"viability, T/C",[27],83.9%
same,"viability, T/C",[28],88.9%
same,"viability, T/C",[29],81%
same,"viability, T/C",[30],80.5%
COc1cccc2c1C(=O)c1c(O)c3c(c(O)c1C2=O)CC(O)(C(=O)CO)CC3OC1CC(N)C(O)C(C)O1 (stereo not given) + Cc1ccccc1N=Nc1ccc(NC(=O)c2ccnn2C)c(C)c1,IC50,second compound 0.1 µM,< 31.6 nM
same,IC50,second compound 0.316 µM,< 31.6 nM
same,IC50,second compound 1 µM,< 31.6 nM
same,IC50,second compound 3.16 µM,95.9 nM
same,IC50,second compound 10 µM,129 nM
same,"viability, T/C",[1],50.3%
same,"viability, T/C",[2],44.6%
same,"viability, T/C",[3],25.8%
same,"viability, T/C",[4],9.24%
same,"viability, T/C",[5],5.33%
same,"viability, T/C",[6],16.6%
same,"viability, T/C",[7],50.5%
same,"viability, T/C",[8],40.8%
same,"viability, T/C",[9],29.3%
same,"viability, T/C",[10],9.21%
same,"viability, T/C",[11],4.48%
same,"viability, T/C",[12],17.2%
same,"viability, T/C",[13],48.8%
same,"viability, T/C",[14],44%
same,"viability, T/C",[15],28.6%
same,"viability, T/C",[16],10.4%
same,"viability, T/C",[17],8.05%
same,"viability, T/C",[18],19.6%
same,"viability, T/C",[19],55.6%
same,"viability, T/C",[20],47%
same,"viability, T/C",[21],32.6%
same,"viability, T/C",[22],12.3%
same,"viability, T/C",[23],11.6%
same,"viability, T/C",[24],19.2%
same,"viability, T/C",[25],60.5%
same,"viability, T/C",[26],51%
same,"viability, T/C",[27],37.2%
same,"viability, T/C",[28],16.3%
same,"viability, T/C",[29],8.54%
same,"viability, T/C",[30],22.5%
CC(C)CC(NC(=O)C(Cc1ccccc1)NC(=O)c1cnccn1)B(O)O (stereo not given) + Cc1cncc(-c2nc(NCCc3c[nH]c4ccccc34)c3ncn(C(C)C)c3n2)c1,IC50,second compound 0.1 µM,22.3 nM
same,IC50,second compound 0.316 µM,20.4 nM
same,IC50,second compound 1 µM,21.4 nM
same,IC50,second compound 3.16 µM,20.4 nM
same,IC50,second compound 10 µM,4.28 nM
same,"viability, T/C","second compound 0.1 µM, first compound 0.000949 µM",94.5%
same,"viability, T/C","second compound 0.1 µM, first compound 0.003 µM",130%
same,"viability, T/C","second compound 0.1 µM, first compound 0.00949 µM",103%
same,"viability, T/C","second compound 0.1 µM, first compound 0.03 µM",29.3%
same,"viability, T/C","second compound 0.1 µM, first compound 0.0949 µM",9.65%
same,"viability, T/C","second compound 0.1 µM, first compound 0.3 µM",3.26%
same,"viability, T/C","second compound 0.316 µM, first compound 0.000949 µM",108%
same,"viability, T/C","second compound 0.316 µM, first compound 0.003 µM",108%
same,"viability, T/C","second compound 0.316 µM, first compound 0.00949 µM",113%
same,"viability, T/C","second compound 0.316 µM, first compound 0.03 µM",20%
same,"viability, T/C","second compound 0.316 µM, first compound 0.0949 µM",8.44%
same,"viability, T/C","second compound 0.316 µM, first compound 0.3 µM",2.71%
same,"viability, T/C","second compound 1 µM, first compound 0.000949 µM",100%
same,"viability, T/C","second compound 1 µM, first compound 0.003 µM",126%
same,"viability, T/C","second compound 1 µM, first compound 0.00949 µM",112%
same,"viability, T/C","second compound 1 µM, first compound 0.03 µM",24%
same,"viability, T/C","second compound 1 µM, first compound 0.0949 µM",7.89%
same,"viability, T/C","second compound 1 µM, first compound 0.3 µM",3.25%
same,"viability, T/C","second compound 3.16 µM, first compound 0.000949 µM",118%
same,"viability, T/C","second compound 3.16 µM, first compound 0.003 µM",121%
same,"viability, T/C","second compound 3.16 µM, first compound 0.00949 µM",112%
same,"viability, T/C","second compound 3.16 µM, first compound 0.03 µM",18.5%
same,"viability, T/C","second compound 3.16 µM, first compound 0.0949 µM",4.53%
same,"viability, T/C","second compound 3.16 µM, first compound 0.3 µM",2.13%
same,"viability, T/C","second compound 10 µM, first compound 0.000949 µM",59.6%
same,"viability, T/C","second compound 10 µM, first compound 0.003 µM",66.7%
same,"viability, T/C","second compound 10 µM, first compound 0.00949 µM",20.5%
same,"viability, T/C","second compound 10 µM, first compound 0.03 µM",2.12%
same,"viability, T/C","second compound 10 µM, first compound 0.0949 µM",0.89%
same,"viability, T/C","second compound 10 µM, first compound 0.3 µM",0.72%
CC1COCCN1c1cc(C2(S(C)(=N)=O)CC2)nc(-c2ccnc3[nH]ccc23)n1 (stereo not given) + Cc1ccccc1N=Nc1ccc(NC(=O)c2ccnn2C)c(C)c1,IC50,second compound 0.1 µM,8830 nM
same,IC50,second compound 0.316 µM,7290 nM
same,IC50,second compound 1 µM,8180 nM
same,IC50,second compound 3.16 µM,7120 nM
same,IC50,second compound 10 µM,6750 nM
same,"viability, T/C",[1],110%
same,"viability, T/C",[2],90.1%
same,"viability, T/C",[3],110%
same,"viability, T/C",[4],83.5%
same,"viability, T/C",[5],71.2%
same,"viability, T/C",[6],47.3%
same,"viability, T/C",[7],98.3%
same,"viability, T/C",[8],102%
same,"viability, T/C",[9],106%
same,"viability, T/C",[10],94.5%
same,"viability, T/C",[11],63%
same,"viability, T/C",[12],45.1%
same,"viability, T/C",[13],93.4%
same,"viability, T/C",[14],95.3%
same,"viability, T/C",[15],94.5%
same,"viability, T/C",[16],84%
same,"viability, T/C",[17],65.9%
same,"viability, T/C",[18],46.6%
same,"viability, T/C",[19],98%
same,"viability, T/C",[20],86%
same,"viability, T/C",[21],92.8%
same,"viability, T/C",[22],80.8%
same,"viability, T/C",[23],70.1%
same,"viability, T/C",[24],41.6%
same,"viability, T/C",[25],94.3%
same,"viability, T/C",[26],83%
same,"viability, T/C",[27],80.8%
same,"viability, T/C",[28],71.2%
same,"viability, T/C",[29],63.3%
same,"viability, T/C",[30],42.8%
CC1COCCN1c1cc(-c2ccnn2C)c2ccnc(-c3ccn[nH]3)c2n1 (stereo not given) + CC(CO)NC(=O)c1cc(-c2ccc(Cl)cc2)nn(-c2cnn(C)c2)c1=O,IC50,second compound 0.1 µM,162 nM
same,IC50,second compound 0.316 µM,134 nM
same,IC50,second compound 1 µM,168 nM
same,IC50,second compound 3.16 µM,100 nM
same,IC50,second compound 10 µM,53.6 nM
same,"viability, T/C","second compound 0.1 µM, first compound 0.00316 µM",102%
same,"viability, T/C","second compound 0.1 µM, first compound 0.01 µM",101%
same,"viability, T/C",[1],94%
same,"viability, T/C",[2],60.2%
same,"viability, T/C",[3],36.4%
same,"viability, T/C",[4],28.4%
same,"viability, T/C","second compound 0.316 µM, first compound 0.00316 µM",103%
same,"viability, T/C","second compound 0.316 µM, first compound 0.01 µM",103%
same,"viability, T/C",[7],76.1%
same,"viability, T/C",[8],56.5%
same,"viability, T/C",[9],36.3%
same,"viability, T/C",[10],27.9%
same,"viability, T/C","second compound 1 µM, first compound 0.00316 µM",97.3%
same,"viability, T/C","second compound 1 µM, first compound 0.01 µM",105%
same,"viability, T/C",[13],80.6%
same,"viability, T/C",[14],60.1%
same,"viability, T/C",[15],39.5%
same,"viability, T/C",[16],30.4%
same,"viability, T/C","second compound 3.16 µM, first compound 0.00316 µM",94%
same,"viability, T/C","second compound 3.16 µM, first compound 0.01 µM",97.7%
same,"viability, T/C",[19],89.9%
same,"viability, T/C",[20],49.9%
same,"viability, T/C",[21],35.6%
same,"viability, T/C",[22],32.9%
same,"viability, T/C","second compound 10 µM, first compound 0.00316 µM",92.3%
same,"viability, T/C","second compound 10 µM, first compound 0.01 µM",86.4%
same,"viability, T/C",[25],57%
same,"viability, T/C",[26],41.5%
same,"viability, T/C",[27],30.7%
same,"viability, T/C",[28],29.2%
